According to patent US10047092B2 (Janssen Pharmaceutica NV, priority 2013, dated 2018):

The compounds below were run against P2X7 (Homo sapiens (Human), UniProt Q99572) (assay: P2X7 antagonism in human PBMCs (IL-1β release, LPS + Bz-ATP)). Conditions: 10 μM test compound, LPS 30 ng/ml + 0.5 mM Bz-ATP.
Format: cell-based
Protocol: P2X7 Antagonism in Human Peripheral Blood Mononuclear Cells (PBMCs) and Mouse/Human Whole Blood.
Human blood was collected using a blood donor program. PBMCs were isolated from blood using a Ficoll density gradient technique. Briefly, blood was laid on Ficoll solution and centrifuged at RT for 20 minutes at 2000 rpm. The buffy layer (between red blood cells and plasma) was carefully collected by aspiration, washed with PBS and centrifuged again at 1500 rpm for 15 minutes. The resulting cell pellet was washed and plated on 96 well-plates for experiments. For the Mouse/Human Whole Blood experiments, 150 μl of either mouse or human blood was platted on 96 well-plates. Lipopolysaccharide (LPS) (30 ng/ml) was added to each well and incubated for 1 hour. Test compounds were then added and incubated for 30 minutes. The P2X7 agonist, 2′(3′)-O-(4-benzoylbenzoyl) adenosine 5′-triphosphate (Bz-ATP) was then added at a final concentration of 0.5 mM (PBMC) or 1 mM (blood). Cells were incubated for an additional 1.5 hours. At that point, supernatant was collected and stored for IL-1β assay using manufacturer's protocol for enzyme-linked immunosorbent assay (ELISA). Data was expressed as percent control, where control is defined as the difference in IL-113 release in LPS+Bz-ATP samples and LPS only samples. Data was plotted as response (% control) versus concentration to generate IC50 values. […] In Table 2, when the data cell has been left blank, it is intended to mean that the compound was not tested in that assay.

Chain of P2X7 (Q99572 whole entry): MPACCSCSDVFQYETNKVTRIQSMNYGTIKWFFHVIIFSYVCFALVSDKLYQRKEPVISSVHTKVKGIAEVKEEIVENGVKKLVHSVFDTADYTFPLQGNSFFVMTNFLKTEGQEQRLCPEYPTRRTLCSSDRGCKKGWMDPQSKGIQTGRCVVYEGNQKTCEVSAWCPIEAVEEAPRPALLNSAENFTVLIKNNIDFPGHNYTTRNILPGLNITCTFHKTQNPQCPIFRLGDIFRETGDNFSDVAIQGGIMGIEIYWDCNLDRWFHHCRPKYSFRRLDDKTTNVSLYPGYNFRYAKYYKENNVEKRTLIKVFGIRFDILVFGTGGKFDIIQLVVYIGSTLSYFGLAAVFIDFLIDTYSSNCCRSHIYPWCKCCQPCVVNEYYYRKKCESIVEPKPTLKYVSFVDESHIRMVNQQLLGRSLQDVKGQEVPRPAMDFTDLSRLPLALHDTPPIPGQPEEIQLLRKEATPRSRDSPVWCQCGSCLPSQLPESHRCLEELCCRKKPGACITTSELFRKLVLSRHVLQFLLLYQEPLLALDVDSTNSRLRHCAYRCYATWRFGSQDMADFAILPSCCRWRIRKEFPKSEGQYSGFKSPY

Row | Compound | PBMC 10 μM (% control)
1 | C[C@H]1Cn2c(nnc2-c2cnccn2)C(=O)N1Cc1cccc(Cl)c1Cl [Example 13, (6S)-7-(2,3-Dichlorobenzyl)-6-methyl-3-pyrazin-2-yl-6,7-dihydro[1,2,4]triazolo[4,3-a]pyrazin-8(5H)-one] | 15.4
2 | C[C@H]1Cn2c(nnc2-c2cnccn2)C(=O)N1Cc1cccc(C(F)(F)F)c1Cl [Example 16, (6S)-7-[2-Chloro-3-(trifluoromethyl)benzyl]-6-methyl-3-pyrazin-2-yl-6,7-dihydro[1,2,4]triazolo[4,3-a]pyrazin-8(5H)-one] | 13.4
3 | CC[C@H]1Cn2c(nnc2-c2cnccn2)C(=O)N1Cc1cccc(C(F)(F)F)c1Cl [Example 71, (6S)-7-[2-Chloro-3-(trifluoromethyl)benzyl]-6-ethyl-3-pyrazin-2-yl-6,7-dihydro[1,2,4]triazolo[4,3-a]pyrazin-8(5H)-one] | 1.2
4 | CC(c1cccc(C(F)(F)F)c1Cl)N1C(=O)c2nnc(-c3cnccn3)n2C[C@@H]1C (stereo partly drawn) [Example 93] | 4.5

Same assay, conditions: P2X7, 10 μM test compound, LPS 30 ng/ml + 0.5 mM Bz-ATP, read-out: PBMC 10 μM (% control)

Row | remaining activity at 10 µM [%] | Compound
5 | 15.9 | O=C1c2nnc(-c3ncccn3)n2C[C@@H](C2CC2)N1Cc1cccc(C(F)(F)F)c1Cl (single isomer, unassigned) [Example 65, (6R*)-7-[2-Chloro-3-(trifluoromethyl)benzyl]-6-cyclopropyl-3-pyrimidin-2-yl-6,7-dihydro[1,2,4]triazolo[4,3-a]pyrazin-8(5H)-one]
6 | 20.7 | O=C1c2nnc(-c3ncccn3)n2C[C@H](C2CC2)N1Cc1cccc(C(F)(F)F)c1Cl (single isomer, unassigned) [Example 66, (6S*)-7-[2-Chloro-3-(trifluoromethyl)benzyl]-6-cyclopropyl-3-pyrimidin-2-yl-6,7-dihydro[1,2,4]triazolo[4,3-a]pyrazin-8(5H)-one]
